Results on 15 compounds are retold here after US20250388553A1 (Incyte Corporation, priority 2018, published 2025).

The target in experiment [1] is PI3Kδ (p1106/p85a) Recombinant Human Protein (Homo sapiens (Human), UniProt O00329). Kind of experiment: PI3Kδ scintillation proximity assay. Format: biochemical.
In experiment [2] the target is PI3Kγ (p110γ) Recombinant Human Protein (Homo sapiens (Human), UniProt P48736). Kind of experiment: PI3K-γ scintillation proximity assay. Format: biochemical. Background: Scintillation proximity formats need no separation of bound from free tracer.
Experiment [3] relates to Phosphorylated Ribosomal Protein S6 (RPS6) in THP-1 cells. Kind of experiment: THP-1 RPS6 ELISA assay. Format: cell-based, Human.
[4] abbreviates: Table A2, scintillation proximity assay, recombinant human PI3Kδ.
[5] abbreviates: Table A2, scintillation proximity assay, recombinant human p110γ.
Where [6] appears, read: Homo sapiens, Table A2, THP-1 cells, 10 nM MCP-1, phospho-RPS6 ELISA, read-out: PI3Kγ_THP1_RPS6_ELISA IC50.
Where [7] appears, read: Table A3, scintillation proximity assay, recombinant human PI3Kδ.
Where [8] appears, read: Table A3, scintillation proximity assay, recombinant human p110γ.
Setting [9] is: Homo sapiens, Table A3, THP-1 cells, 10 nM MCP-1, phospho-RPS6 ELISA, read-out: PI3Kγ_THP1_RPS6_ELISA IC50.
[10] abbreviates: Table A1, scintillation proximity assay, recombinant human PI3Kδ.
Where [11] appears, read: Table A1, scintillation proximity assay, recombinant human p110γ.

Where a name gives a salt, the structure may show the parent alone. Read-outs that look alike come from different tables or passages of the source.

Sequence of PI3Kγ (p110γ) Recombinant Human Protein (P48736 whole entry): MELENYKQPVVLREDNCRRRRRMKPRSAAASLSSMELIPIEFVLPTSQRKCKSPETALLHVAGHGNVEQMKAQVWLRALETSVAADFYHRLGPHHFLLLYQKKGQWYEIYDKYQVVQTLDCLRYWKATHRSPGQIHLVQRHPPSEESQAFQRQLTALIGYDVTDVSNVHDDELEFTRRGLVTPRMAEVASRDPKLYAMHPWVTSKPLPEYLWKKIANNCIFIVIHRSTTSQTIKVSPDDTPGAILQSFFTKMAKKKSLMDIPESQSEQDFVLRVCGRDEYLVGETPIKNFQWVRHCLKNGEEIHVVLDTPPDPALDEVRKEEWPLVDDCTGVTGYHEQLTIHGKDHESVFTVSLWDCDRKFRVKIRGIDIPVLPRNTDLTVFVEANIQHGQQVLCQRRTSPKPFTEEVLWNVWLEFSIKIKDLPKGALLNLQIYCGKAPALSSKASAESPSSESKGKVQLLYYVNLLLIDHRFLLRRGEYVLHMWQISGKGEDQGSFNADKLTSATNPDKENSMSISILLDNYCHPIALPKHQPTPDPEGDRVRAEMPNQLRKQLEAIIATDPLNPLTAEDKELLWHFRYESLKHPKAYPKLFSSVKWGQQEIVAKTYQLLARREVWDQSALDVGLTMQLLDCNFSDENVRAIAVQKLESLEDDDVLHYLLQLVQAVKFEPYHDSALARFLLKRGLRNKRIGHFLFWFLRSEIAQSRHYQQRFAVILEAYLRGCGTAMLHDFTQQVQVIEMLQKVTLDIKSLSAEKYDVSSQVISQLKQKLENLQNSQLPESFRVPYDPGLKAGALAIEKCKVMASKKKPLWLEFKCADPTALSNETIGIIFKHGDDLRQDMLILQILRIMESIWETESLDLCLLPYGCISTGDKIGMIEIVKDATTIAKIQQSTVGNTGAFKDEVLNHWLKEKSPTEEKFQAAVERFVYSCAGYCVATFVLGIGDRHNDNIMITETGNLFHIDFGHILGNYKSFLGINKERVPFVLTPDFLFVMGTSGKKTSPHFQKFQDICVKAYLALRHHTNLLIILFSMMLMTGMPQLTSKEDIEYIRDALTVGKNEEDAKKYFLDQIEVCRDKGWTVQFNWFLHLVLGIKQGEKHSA
Sequence of PI3Kδ (p1106/p85a) Recombinant Human Protein (O00329 whole entry): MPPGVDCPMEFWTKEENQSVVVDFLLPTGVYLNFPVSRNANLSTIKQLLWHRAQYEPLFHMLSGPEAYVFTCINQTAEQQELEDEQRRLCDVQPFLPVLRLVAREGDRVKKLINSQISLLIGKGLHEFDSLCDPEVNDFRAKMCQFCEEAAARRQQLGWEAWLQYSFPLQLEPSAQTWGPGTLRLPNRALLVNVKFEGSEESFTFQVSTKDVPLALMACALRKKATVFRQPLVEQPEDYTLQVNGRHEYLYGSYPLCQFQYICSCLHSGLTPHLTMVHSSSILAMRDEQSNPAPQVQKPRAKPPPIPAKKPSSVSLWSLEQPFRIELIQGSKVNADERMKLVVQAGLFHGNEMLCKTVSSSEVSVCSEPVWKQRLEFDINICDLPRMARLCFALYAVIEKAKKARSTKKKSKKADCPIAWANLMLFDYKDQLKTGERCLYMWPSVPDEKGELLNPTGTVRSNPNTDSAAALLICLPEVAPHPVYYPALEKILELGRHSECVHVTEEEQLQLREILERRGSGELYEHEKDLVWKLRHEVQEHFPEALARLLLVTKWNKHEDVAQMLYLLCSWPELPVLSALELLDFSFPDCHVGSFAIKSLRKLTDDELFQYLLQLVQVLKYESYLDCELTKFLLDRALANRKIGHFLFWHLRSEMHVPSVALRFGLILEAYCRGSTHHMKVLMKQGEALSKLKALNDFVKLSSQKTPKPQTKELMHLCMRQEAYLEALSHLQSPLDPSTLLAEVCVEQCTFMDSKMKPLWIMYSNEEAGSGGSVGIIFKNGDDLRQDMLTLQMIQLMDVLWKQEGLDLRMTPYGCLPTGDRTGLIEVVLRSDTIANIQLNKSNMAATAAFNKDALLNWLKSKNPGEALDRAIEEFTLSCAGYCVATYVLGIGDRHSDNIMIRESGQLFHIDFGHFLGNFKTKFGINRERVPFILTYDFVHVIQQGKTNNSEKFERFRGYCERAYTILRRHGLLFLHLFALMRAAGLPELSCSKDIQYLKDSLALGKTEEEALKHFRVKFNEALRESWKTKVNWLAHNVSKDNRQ
Sequence of PI3Kδ (p1106/p85a) Recombinant Human Protein (P27986 whole entry partner): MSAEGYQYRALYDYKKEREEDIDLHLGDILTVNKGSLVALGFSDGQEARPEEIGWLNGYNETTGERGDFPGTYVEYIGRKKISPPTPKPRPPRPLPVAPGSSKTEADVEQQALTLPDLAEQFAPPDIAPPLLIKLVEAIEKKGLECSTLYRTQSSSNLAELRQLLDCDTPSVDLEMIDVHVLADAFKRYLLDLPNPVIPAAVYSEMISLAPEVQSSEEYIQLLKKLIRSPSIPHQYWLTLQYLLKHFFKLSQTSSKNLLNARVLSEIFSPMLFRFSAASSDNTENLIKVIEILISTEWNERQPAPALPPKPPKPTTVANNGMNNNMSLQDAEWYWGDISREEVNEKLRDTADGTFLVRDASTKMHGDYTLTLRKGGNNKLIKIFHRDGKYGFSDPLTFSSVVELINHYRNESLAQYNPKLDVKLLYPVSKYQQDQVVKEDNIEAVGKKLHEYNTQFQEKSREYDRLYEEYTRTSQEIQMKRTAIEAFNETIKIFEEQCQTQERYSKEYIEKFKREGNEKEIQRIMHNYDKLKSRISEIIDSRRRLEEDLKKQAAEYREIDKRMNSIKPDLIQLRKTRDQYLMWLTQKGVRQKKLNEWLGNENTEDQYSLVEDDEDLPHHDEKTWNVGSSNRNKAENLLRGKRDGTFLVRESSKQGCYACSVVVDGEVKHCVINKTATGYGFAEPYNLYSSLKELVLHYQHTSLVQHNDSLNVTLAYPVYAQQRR

Take `Cc1ccc(C(O)(C(N)=O)C(F)(F)F)cc1-c1cnc(N)c(C#Cc2ccn[nH]2)n1` (stereo not drawn) [Example 52, 2-(3-(6-((1H-pyrazol-5-yl)ethynyl)-5-aminopyrazin-2-yl)-4-methylphenyl)-3,3,3-trifluoro-2-hydroxypropanamide]: the IC50 in experiment [1] (setting [4]) was under 100 nM; in experiment [2] (setting [5]) it was under 100 nM; in experiment [3] (setting [6]), 100 to 500 nM.
Take `Cc1ccc(C(O)(C(N)=O)C(F)(F)F)cc1-c1cnc(N)c(-c2ccc(CC#N)cc2)n1` (stereo not drawn) [Example 87, 2-(3-(5-amino-6-(4-(cyanomethyl)phenyl)pyrazin-2-yl)-4-methylphenyl)-3,3,3-trifluoro-2-hydroxypropanamide trifluoroacetate]: the IC50 in experiment [1] (setting [7]) is under 100 nM; in experiment [2] (setting [8]), under 100 nM; in experiment [3] (setting [9]) it was 100 to 500 nM.
On to `Cc1ccc(C(O)(C(N)=O)C(F)(F)F)cc1-c1cnc(N)c(C#CC(C)C)n1` (stereo not drawn) [Example 49, 2-(3-(5-amino-6-(3-methylbut-1-ynyl)pyrazin-2-yl)-4-methylphenyl)-3,3,3-trifluoro-2-hydroxypropanamide], for which the IC50 in experiment [1] (setting [4]) is under 100 nM; in experiment [2] (setting [5]), under 100 nM; in experiment [3] (setting [6]) it was 100 to 500 nM.
In the case of `Cc1ccc(C(O)(C(N)=O)C(F)(F)F)cc1-c1cnc(N)c(N2CCN(CCC#N)CC2)n1` (stereo not drawn) [Example 125, 2-(3-(5-amino-6-(4-(2-cyanoethyl)piperazin-1-yl)pyrazin-2-yl)-4-methylphenyl)-3,3,3-trifluoro-2-hydroxypropanamide trifluoroacetate], the IC50 in experiment [1] was under 100 nM; in experiment [2] it was under 100 nM; in experiment [3] (Homo sapiens, THP-1, read-out: PI3Kγ_THP1_RPS6_ELISA IC50 (nM)), 100 to 500 nM.
For `Cc1ncc(-c2nc(-c3cc(C(O)(C(N)=O)C(F)(F)F)ccc3C)cnc2N)o1` (stereo not drawn) [Example 70, 2-(3-(5-amino-6-(2-methyloxazol-5-yl)pyrazin-2-yl)-4-methylphenyl)-3,3,3-trifluoro-2-hydroxypropanamide trifluoroacetate], the IC50 in experiment [1] (setting [7]), in experiment [2] (setting [8]) and in experiment [3] (setting [9]) was under 100 nM in each case.
In the case of `Cc1ccc(C(O)(C(N)=O)C(F)(F)F)cc1-c1cnc(N)c(-c2ccc(B(O)O)cc2)n1` (stereo not drawn) [Example 97, (4-(3-Amino-6-(5-(3-amino-1,1,1-trifluoro-2-hydroxy-3-oxopropan-2-yl)-2-methylphenyl)pyrazin-2-yl)phenyl)boronic Acid], the values for the IC50 in experiment [1] (setting [7]), in experiment [2] (setting [8]) and in experiment [3] (setting [9]) were under 100 nM, under 100 nM and 100 to 500 nM, respectively.
Consider `Cc1ccc(C(O)(C(N)=O)C(F)(F)F)cc1-c1cnc(N)c(-c2cnn(C3CCOCC3)c2)n1` (stereo not drawn) [Example 77, 2-(3-(5-amino-6-(1-(tetrahydro-2H-pyran-4-yl)-1H-pyrazol-4-yl)pyrazin-2-yl)-4-methylphenyl)-3,3,3-trifluoro-2-hydroxypropanamide trifluoroacetate], for which the IC50 in experiment [1] (setting [7]), in experiment [2] (setting [8]) and in experiment [3] (setting [9]) was under 100 nM in each case.
Take `CO[C@H]1CC[C@H](NC(=O)c2nc(-c3cc(C(O)(C(N)=O)C(F)(F)F)ccc3C)cnc2N)CC1` (stereo partly drawn) [Example 22, 3-amino-6-(5-(3-amino-1,1,1-trifluoro-2-hydroxy-3-oxopropan-2-yl)-2-methylphenyl)-N-((1r,4r)-4-methoxycyclohexyl)pyrazine-2-carboxamide trifluoroacetate]: the IC50 in experiment [1] (setting [10]) was under 100 nM; in experiment [2] (setting [11]), under 100 nM; in experiment [3] (Table A1, THP-1 cells, 10 nM MCP-1, phospho-RPS6 ELISA, read-out: PI3Kγ_THP1_RPS6_ELISA IC50) it was under 100 nM.
Consider `Cc1ccc(C(O)(CNC(=O)CF)C(F)(F)F)cc1-c1cnc(N)c(C(=O)NC(C)C)n1` (stereo not drawn) [Example 40, 3-Amino-N-isopropyl-6-(2-methyl-5-(1,1,1-trifluoro-3-(2-fluoroacetamido)-2-hydroxypropan-2-yl)phenyl)pyrazine-2-carboxamide trifluoroacetate], for which the IC50 in experiment [1] (setting [10]) is under 100 nM; in experiment [2] (setting [11]), under 100 nM; in experiment [3] (Homo sapiens, Table A1, THP-1 cells, 10 nM MCP-1, phospho-RPS6 ELISA, read-out: PI3Kγ_THP1_RPS6_ELISA IC50), 100 to 500 nM.
With `Cc1ccc(C(O)(C(N)=O)C(F)(F)F)cc1-c1cnc(N)c(-c2cncnc2)n1` (stereo not drawn) [Example 81, 2-(3-(5-amino-6-(pyrimidin-5-yl)pyrazin-2-yl)-4-methylphenyl)-3,3,3-trifluoro-2-hydroxypropanamide trifluoroacetate], the IC50 is 100 to 500 nM in experiment [1] (setting [7]), under 100 nM in experiment [2] (setting [8]) and 100 to 500 nM in experiment [3] (setting [9]).
In the case of `Cc1ccc(C(O)(C(N)=O)C(F)(F)F)cc1-c1cnc(N)c(C#Cc2cncn2C)n1` (stereo not drawn) [Example 53, 2-(3-(5-amino-6-((1-methyl-1H-imidazol-5-yl)ethynyl)pyrazin-2-yl)-4-methylphenyl)-3,3,3-trifluoro-2-hydroxypropanamide], the IC50 is under 100 nM in experiment [1] (setting [4]); under 100 nM in experiment [2] (setting [5]); 100 to 500 nM in experiment [3] (Table A2, THP-1 cells, 10 nM MCP-1, phospho-RPS6 ELISA, read-out: PI3Kγ_THP1_RPS6_ELISA IC50).
As to `Cc1ccc(C(O)(C(N)=O)C(F)(F)F)cc1-c1cnc(N)c(N2CCN(c3ccc(C#N)cc3)CC2)n1` (stereo not drawn) [Example 123, 2-(3-(5-amino-6-(4-(4-cyanophenyl)piperazin-1-yl)pyrazin-2-yl)-4-methylphenyl)-3,3,3-trifluoro-2-hydroxypropanamide trifluoroacetate], the IC50 in experiment [1] (Table A4, scintillation proximity assay, recombinant human PI3Kδ) was under 100 nM; in experiment [2] (Table A4, scintillation proximity assay, recombinant human p110γ), under 100 nM; in experiment [3] (Homo sapiens, Table A4, THP-1 cells, 10 nM MCP-1, phospho-RPS6 ELISA, read-out: PI3Kγ_THP1_RPS6_ELISA IC50) it was 100 to 500 nM.
Take `Cc1ccc(C(O)(C(N)=O)C(F)(F)F)cc1-c1cnc(N)c(-c2ccc(C3CC3)cc2)n1` (stereo not drawn) [Example 92, 2-(3-(5-amino-6-(4-cyclopropylphenyl)pyrazin-2-yl)-4-methylphenyl)-3,3,3-trifluoro-2-hydroxypropanamide trifluoroacetate]: the figures for the IC50 in experiment [1] (setting [7]), in experiment [2] (setting [8]) and in experiment [3] (setting [9]) were 100 to 500 nM, under 100 nM and 100 to 500 nM, respectively.
Regarding `Cc1ccc(C(O)(C(N)=O)C(F)(F)F)cc1-c1cnc(N)c(-c2cnn(C)n2)n1` (stereo not drawn) [Example 73, 2-(3-(5-amino-6-(2-methyl-2H-1,2,3-triazol-4-yl)pyrazin-2-yl)-4-methylphenyl)-3,3,3-trifluoro-2-hydroxypropanamide trifluoroacetate], the IC50 in experiment [1] (setting [7]), in experiment [2] (setting [8]) and in experiment [3] (setting [9]) was under 100 nM each time.
On to `Cc1ccc(C(O)(C(N)=O)C(F)(F)F)cc1-c1cnc(N)c(-c2cnn(C)c2)n1` (stereo not drawn) [Example 71, 2-(3-(5-amino-6-(1-methyl-1H-pyrazol-4-yl)pyrazin-2-yl)-4-methylphenyl)-3,3,3-trifluoro-2-hydroxypropanamide trifluoroacetate], for which the IC50 in experiment [1] (setting [7]), in experiment [2] (setting [8]) and in experiment [3] (setting [9]) was under 100 nM throughout.

For orientation: IC50 means the concentration at which inhibition is half-maximal.
